# Experimental data taken from patent US20240360151A1 (SANOFI, priority 2023, published 2024).
# Tests used:
# NLRP3 inflammasome = target: T1, NLRP3 inflammasome (Homo sapiens, UniProt Q96P20); assay: IL-1β secretion assay (NLRP3 IC50) in LPS-primed, nigericin-activated THP-1 cells, HTRF; type: cell-based; settings: monocytic THP-1 cells; LPS 10 ng/mL 3 h priming, then compound + nigericin 10 μM 2 h; relative IC50, 10 concentrations, geometric mean
# T1 construct: endogenous in cells; host or cells: THP-1 monocytic cells
# In short: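 THP-1 cells primed with LPS 10 ng/mL for 3 h at 37° C., then compound (10-point 1:3 dilution, 0.1% DMSO) added with 10 μM nigericin for 2 h. Supernatant IL-1β measured by HTRF; relative IC50 from a 4-parameter logistic fit, reported as geometric mean.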
# [1] = system: NF-kB pathway (TNF-α secretion by THP-1 cells); assay: TNF-α secretion assay in LPS-stimulated THP-1 cells, Lumit immunoassay; type: cell-based, human; settings: Homo sapiens, THP-1, 3 h, monocytic THP-1 cells, LPS 10 ng/mL, relative IC50, 10 concentrations, geometric mean
# Procedure: Monocytic THP-1 cells were maintained in RPMI 1640 media (Gibco 21875)+10% FBS, (Gibco 10500)+1% penicillin/streptomycin (Gibco 15140-122). Cells were then plated at 40,000 cells per well in 384-well cell culture plates (Corning 3542) and maintained with RPMI1640 (Gibco 11835)+5% FBS, (Gibco 10500). Experimental compounds were prepared and added as described above. TNF-α secretion was triggered by the addition of 10 ng/mL LPS (invivoGen, tlrl-3pelps) and cells were incubated for 3 hours. TNF-α levels were monitored directly in the cells plate using an Lumit assay (Lumit TNFa-Human Immunoassay—Promega W6051) according to manufacturers' instructions.
# Data were expressed as percentage of inhibition (I %) as compared to a maximum signal control containing no small molecule (I %=0%) according to the formula: 1%=(1−((Sample−Min))/((Max−Min)))×100, where: • Sample: Signal obtained in the presence of each compound tested, • Max: Maximum signal in the absence of compound added, • Min: Minimum or background signal obtained in the absence of activation signal.
# Relative IC50 (IC50 rel) were obtained from a dose response curve with 10 concentrations. Final IC50 rels are expressed as the geometric mean.
# Relative IC50 values were estimated with Biost@t-SPEED v2.4 internal software based on SAS system using the 4-parameter logistic model according to Ratkovsky and Reedy (D. A. Ratkovsky, T. J. Reedy, Choosing near-linear parameters in the four parameters logistic model radioligands and related assays. Biometrics, 42 (1986), 575-582): Y=A+C/((1+exp(−B*(log(X)−M)))), where: • A: Lower asymptote (BOTTOM), • A+C: Upper asymptote (TOP), • M: the logarithm of the concentration estimated at the inflexion point (the logarithm of the relative IC50), • B: Slope at the inflexion point of the curve.
# T1 sequence (Q96P20 whole entry): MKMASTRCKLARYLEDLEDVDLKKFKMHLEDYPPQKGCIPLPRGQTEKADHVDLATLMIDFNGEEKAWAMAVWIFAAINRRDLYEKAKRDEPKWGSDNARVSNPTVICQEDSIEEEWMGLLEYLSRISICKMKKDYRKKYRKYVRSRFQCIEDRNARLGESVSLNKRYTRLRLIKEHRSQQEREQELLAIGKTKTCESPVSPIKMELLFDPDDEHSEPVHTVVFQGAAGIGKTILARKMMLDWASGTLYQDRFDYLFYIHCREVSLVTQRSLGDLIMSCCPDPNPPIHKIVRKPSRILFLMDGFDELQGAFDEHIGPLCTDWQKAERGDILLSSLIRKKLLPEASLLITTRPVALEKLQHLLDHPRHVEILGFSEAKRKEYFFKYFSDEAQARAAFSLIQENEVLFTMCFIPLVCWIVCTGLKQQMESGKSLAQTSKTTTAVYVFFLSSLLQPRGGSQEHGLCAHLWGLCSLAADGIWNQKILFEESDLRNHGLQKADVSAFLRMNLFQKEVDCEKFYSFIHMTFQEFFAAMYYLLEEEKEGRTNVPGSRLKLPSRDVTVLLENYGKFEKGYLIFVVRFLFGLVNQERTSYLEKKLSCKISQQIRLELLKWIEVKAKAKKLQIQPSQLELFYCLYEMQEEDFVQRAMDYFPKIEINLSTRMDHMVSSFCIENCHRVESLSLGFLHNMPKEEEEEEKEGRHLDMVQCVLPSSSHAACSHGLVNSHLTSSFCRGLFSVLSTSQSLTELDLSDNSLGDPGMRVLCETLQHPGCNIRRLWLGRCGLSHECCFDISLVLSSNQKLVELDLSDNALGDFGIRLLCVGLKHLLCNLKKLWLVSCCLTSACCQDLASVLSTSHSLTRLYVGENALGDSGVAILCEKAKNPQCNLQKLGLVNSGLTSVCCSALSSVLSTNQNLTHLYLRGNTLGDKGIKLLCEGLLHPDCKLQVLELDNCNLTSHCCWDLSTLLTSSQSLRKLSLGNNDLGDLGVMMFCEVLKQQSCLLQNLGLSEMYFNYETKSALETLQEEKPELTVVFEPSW
Structure (SMILES),IC50 (NLRP3 inflammasome),IC50 [1]
"Cc1cc(C)c(-c2ccc(N3CCO[C@H]4CN(C5CCC5)CC[C@H]43)nn2)c(O)c1 (racemic) [Example 4, 3,5-dimethyl-2-[6-[rac-(4aS,8aR)-6-cyclobutyl-3,4a,5,7,8,8a-hexahydro-2H-pyrido[3,4-b][1,4]oxazin-1-yl]pyridazin-3-yl]phenol]",251 nM,> 10000 nM
"Cc1cc(C)c(-c2ccc(N3CCO[C@@H]4COCC[C@H]43)nn2)c(O)c1 (racemic) [Example 154, 3,5-dimethyl-2-[6-[rac-(4aR,8aS)-3,4a,5,7,8,8a-hexahydro-2H-pyrano[3,4-b][1,4]oxazin-1-yl]pyridazin-3-yl]phenol]",344 nM,> 10000 nM
"Cc1cc(C)c(-c2ccc(N3CCO[C@H]4CCNC[C@H]43)nn2)c(O)c1 (racemic) [Example 195, 3,5-dimethyl-2-[6-[rac-(4aR,8aS)-2,3,4a,5,6,7,8,8a-octahydropyrido[4,3-b][1,4]oxazin-4-yl]pyridazin-3-yl]phenol]",14 nM,> 10000 nM
"Cc1cc(C(F)(F)F)cc(O)c1-c1ccc(N2CCO[C@H]3CCNC[C@H]32)nn1 (racemic) [Example 197, 2-[6-[rac-(4aR,8aS)-2,3,4a,5,6,7,8,8a-octahydropyrido[4,3-b][1,4]oxazin-4-yl]pyridazin-3-yl]-3-methyl-5-(trifluoromethyl)phenol]",9 nM,> 10000 nM
"CCN1CC[C@@H]2OCCN(c3ccc(-c4c(C)cc(C)cc4O)nn3)[C@@H]2C1 (racemic) [Example 209, 2-[6-[rac-(4aR,8aS)-6-ethyl-3,4a,5,7,8,8a-hexahydro-2H-pyrido[4,3-b][1,4]oxazin-4-yl]pyridazin-3-yl]-3,5-dimethyl-phenol]",2 nM,> 10000 nM
"CCN1CC[C@@H]2OCCN(c3ccc(-c4c(C)cc(C(F)(F)F)cc4O)nn3)[C@@H]2C1 (racemic) [Example 210, 2-[6-[rac-(4aR,8aS)-6-ethyl-3,4a,5,7,8,8a-hexahydro-2H-pyrido[4,3-b][1,4]oxazin-4-yl]pyridazin-3-yl]-3-methyl-5-(trifluoromethyl)phenol]",1 nM,> 10000 nM
"CC(=O)N1CC[C@@H]2OCCN(c3ccc(-c4c(C)cc(C)cc4O)nn3)[C@@H]2C1 (racemic) [Example 213, 1-[rac-(4aR,8aS)-4-[6-(2-hydroxy-4,6-dimethyl-phenyl)pyridazin-3-yl]-3,4a,5,7,8,8a-hexahydro-2H-pyrido[4,3-b][1,4]oxazin-6-yl]ethanone]",115 nM,> 10000 nM
"CC(=O)N1CC[C@H]2OCCN(c3ccc(-c4c(C)cc(C(F)(F)F)cc4O)nn3)[C@H]2C1 (racemic) [Example 214, 1-[rac-(4aS,8aR)-4-[6-[2-hydroxy-6-methyl-4-(trifluoromethyl)phenyl]pyridazin-3-yl]-3,4a,5,7,8,8a-hexahydro-2H-pyrido[4,3-b][1,4]oxazin-6-yl]ethanone]",36 nM,> 10000 nM
"Cc1cc(Cl)cc(O)c1-c1ccc(N2CCO[C@H]3CCNC[C@H]32)nn1 (racemic) [Example 221, 2-[6-[rac-(4aR,8aS)-2,3,4a,5,6,7,8,8a-octahydropyrido[4,3-b][1,4]oxazin-4-yl]pyridazin-3-yl]-5-chloro-3-methyl-phenol]",18 nM,> 10000 nM
"CC(=O)N1CC[C@@H]2OCCN(c3ccc(-c4c(C)cc(Cl)cc4O)nn3)[C@@H]2C1 (racemic) [Example 222, 1-[rac-(4aR,8aS)-4-[6-(4-chloro-2-hydroxy-6-methyl-phenyl)pyridazin-3-yl]-3,4a,5,7,8,8a-hexahydro-2H-pyrido[4,3-b][1,4]oxazin-6-yl]ethanone]",42 nM,> 10000 nM
"CCN1CC[C@@H]2OCCN(c3ccc(-c4c(C)cc(Cl)cc4O)nn3)[C@@H]2C1 (racemic) [Example 223, 5-chloro-3-methyl-2-[6-[rac-(4aR,8aS)-6-ethyl-3,4a,5,7,8,8a-hexahydro-2H-pyrido[4,3-b][1,4]oxazin-4-yl]pyridazin-3-yl]phenol]",1 nM,> 10000 nM
"Cc1cc(C(F)(F)F)cc(O)c1-c1ccc(N2CCC[C@H]3[C@@H]2CCCN3C)nn1 [Example 515, 2-[6-[(4aS,8aS)-5-methyl-2,3,4,4a,6,7,8,8a-octahydro-1,5-naphthyridin-1-yl]pyridazin-3-yl]-3-methyl-5-(trifluoromethyl)phenol]",44 nM,–
"Cc1cc(C(F)(F)F)cc(O)c1-c1ccc(N2CCC[C@@H]3[C@H]2CCCN3C)nn1 [Example 516, 2-[6-[(4aR,8aR)-5-methyl-2,3,4,4a,6,7,8,8a-octahydro-1,5-naphthyridin-1-yl]pyridazin-3-yl]-3-methyl-5-(trifluoromethyl)phenol]",1080 nM,–
"Cc1cc(C)c(-c2ccc(N3CCC[C@@H]4CCN(C)C[C@H]43)nn2)c(O)c1 [Example 517, 2-[6-[(4aR,8aS)-7-methyl-2,3,4,4a,5,6,8,8a-octahydro-1,7-naphthyridin-1-yl]pyridazin-3-yl]-3,5-dimethyl-phenol]",1340 nM,–
"Cc1cc(C)c(-c2ccc(N3CCC[C@H]4CCN(C)C[C@H]43)nn2)c(O)c1 [Example 518, 2-[6-[(4aS,8aS)-7-methyl-2,3,4,4a,5,6,8,8a-octahydro-1,7-naphthyridin-1-yl]pyridazin-3-yl]-3,5-dimethyl-phenol]",1220 nM,–
"Cc1cc(C)c(-c2ccc(N3CCC[C@@H]4CCN(C)C[C@@H]43)nn2)c(O)c1 [Example 519, 2-[6-[(4aR,8aR)-7-methyl-2,3,4,4a,5,6,8,8a-octahydro-1,7-naphthyridin-1-yl]pyridazin-3-yl]-3,5-dimethyl-phenol]",7 nM,–
"Cc1cc(C)c(-c2ccc(N3CCC[C@H]4CCN(C)C[C@@H]43)nn2)c(O)c1 [Example 520, 2-[6-[(4aS,8aR)-7-methyl-2,3,4,4a,5,6,8,8a-octahydro-1,7-naphthyridin-1-yl]pyridazin-3-yl]-3,5-dimethyl-phenol]",55 nM,–
"Cc1cc(C)c(-c2ccc(N3CCO[C@@H]4CCN(CCF)C[C@@H]43)nn2)c(O)c1 [Example 521, 2-[6-[(4aS,8aR)-6-(2-fluoroethyl)-3,4a,5,7,8,8a-hexahydro-2H-pyrido[4,3-b][1,4]oxazin-4-yl]pyridazin-3-yl]-3,5-dimethyl-phenol]",28 nM,–
"Cc1cc(Cl)cc(O)c1-c1ccc(N2CCO[C@@H]3CCN(CCF)C[C@@H]32)nn1 [Example 522, 2-[6-[(4aS,8aR)-6-(2-fluoroethyl)-3,4a,5,7,8,8a-hexahydro-2H-pyrido[4,3-b][1,4]oxazin-4-yl]pyridazin-3-yl]-5-chloro-3-methyl-phenol]",21 nM,–
"Cc1cc(C(F)(F)F)cc(O)c1-c1ccc(N2CCC[C@@H]3CCN(C)C[C@@H]32)nn1 [Example 523, 2-[6-[(4aR,8aR)-7-methyl-2,3,4,4a,5,6,8,8a-octahydro-1,7-naphthyridin-1-yl]pyridazin-3-yl]-3-methyl-5-(trifluoromethyl)phenol]",681 nM,–
"Cc1cc(C(F)(F)F)cc(O)c1-c1ccc(N2CCC[C@H]3CCN(C)C[C@H]32)nn1 [Example 524, 2-[6-[(4aS,8aS)-7-methyl-2,3,4,4a,5,6,8,8a-octahydro-1,7-naphthyridin-1-yl]pyridazin-3-yl]-3-methyl-5-(trifluoromethyl)phenol]",8 nM,–
"Oc1cc(Cl)ccc1-c1ccc(N2CCO[C@@H]3CCN(CCF)C[C@@H]32)nn1 [Example 525, 2-[6-[(4aS,8aR)-6-(2-fluoroethyl)-3,4a,5,7,8,8a-hexahydro-2H-pyrido[4,3-b][1,4]oxazin-4-yl]pyridazin-3-yl]-5-chloro-phenol]",631 nM,–
"CCc1cc(Cl)cc(O)c1-c1ccc(N2CCO[C@@H]3CCN(CC)C[C@@H]32)nn1 [Example 526, 2-[6-[(4aS,8aR)-6-ethyl-3,4a,5,7,8,8a-hexahydro-2H-pyrido[4,3-b][1,4]oxazin-4-yl]pyridazin-3-yl]-5-chloro-3-ethyl-phenol]",1 nM,–
"Cc1cc(C)c(-c2ccc(N3CCO[C@@H]4CCN(CCCF)C[C@@H]43)nn2)c(O)c1 [Example 527, 2-[6-[(4aS,8aR)-6-(3-fluoropropyl)-3,4a,5,7,8,8a-hexahydro-2H-pyrido[4,3-b][1,4]oxazin-4-yl]pyridazin-3-yl]-3,5-dimethyl-phenol]",20 nM,–
